Like-named read-outs stand apart in the source and are kept apart here.
Experiments:
Bevacizumab [1] = test: Microtiter plate chromatography of resins, Bevacizumab whole IgG (bound, yield, selectivity); type: binding, humanized
Description: (§1) Resins were assessed in packed mode by microtiter plate chromatography. For each column, approximately 30 μl of resin were transferred to a 384-well filter plate and sealed with appropriate top frits.
(§2) Columns were equilibrated with 6.7 column volumes (cv) of phosphate buffered saline (0.15 M NaCl, 20 mM sodium phosphate, pH 7.3; PBS) prior to injection. Either 3.3 cv of whole IgGs dissolved at 0.75 mg ml^−1, Fab or Fc fragments dissolved at 0.25 mg ml^−1 (all three in PBS) or host cell proteins (HCP) were injected onto columns. Antibody fragments of Bevacizumab (Fab and Fc) were prepared by cleavage of whole IgG with papain protease (3) according to the protocol of the manufacturer. […] Volumes transferred were spun through columns at 50 g for 1-2 min. During injection of samples, acceleration was reduced to 10 g and centrifugation time increased to 5-10 min. Effluent fractions were collected in 384-well plates and concentrations of protein analyzed by Bradford assay. Protein masses mi, mft and me (see below) were calculated as the product of fraction volume and measured protein concentration.
(§3) The fraction of ‘bound’ protein was calculated as the difference between the total mass of protein injected mi and the mass of protein detected in the flowthrough mft, divided by the total mass of protein injected.
(§4) The ‘yield’ of protein was calculated as the mass of protein eluted me, divided by the mass of protein injected mi.
(§5) The ‘selectivity’ of resins was calculated as the fraction of bound antibody BAb, divided by the fraction of bound host cell proteins BHCP.
(§6) the fraction of ‘bound’ protein and the ‘yield’ of protein were calculated for each resin based on data for whole IgG-antibodies. In the case of Bevacizumab fragments and host cell proteins, only the fraction of ‘bound’ protein is given. Selectivity of resins was calculated from data for Bevacizumab Whole IgG and host cell proteins. Due to limited experimental precision, selectivity was truncated beyond values of 10.

Bevacizumab [2] = molecular target: T1, Bevacizumab (Homo sapiens, UniProt P01857); test: as above; type: binding, humanized
T1 construct: fused on or other part: humanised anti-VEGF-A VH domain N-terminal of the gamma-1 constant region (engineered, no UniProt entry)
Description: as §1, §2, §3, §4, §5, §6

[3] = test system: human poly-IgG (h-poly-IgG); test: Microtiter plate chromatography of resins, human poly-IgG (bound, yield); type: binding
Description: as §1, §2, §3, §4, §6

Palivizumab = test: Microtiter plate chromatography of resins, Palivizumab (bound, yield); type: binding, humanized
Description: as §1, §2, §3, §4, §6

Tocilizumab = test: Microtiter plate chromatography of resins, Tocilizumab (bound, yield); type: binding, humanized
Description: as §1, §2, §3, §4, §6

host cell proteins (HCP) = test: Microtiter plate chromatography of resins, host cell proteins (bound); type: binding, CHO
Description: Flowthrough from protein A chromatography (referred to as host cell proteins) was derived from the supernatant of antibody-producing CHO cell culture in serum-free medium.
as §1, §2, §3, §6

[4] = bound Bevacizumab whole IgG / bound HCP, truncated beyond values of 10
[5] = fraction of injected whole IgG bound to resin
[6] = mass eluted / mass injected, whole IgG
[7] = fraction of injected protein bound to resin
[8] = fraction of injected host cell proteins bound to resin
[9] = fraction of whole IgG Bevacizumab bound to resin
[10] = mass of whole IgG Bevacizumab eluted / mass injected
[11] = fraction of bound Bevacizumab whole IgG / fraction of bound HCP, truncated beyond values of 10

## COc1ccc(NC(=O)c2cc(-c3csc(C)n3)on2)cc1C(=O)NCCOCCOCC(=O)NCCOCCOCC(=O)NCCCN [Ligand L68, 8-{8-{2-Methoxy-5-[5-(2-methylthiazol-4-yl)isoxazol-3-ylcarboxamido]phenylcarboxamido}-3,6-dioxaoctanoylamido}-3,6-dioxaoctanoic acid (3-amino-1-propyl)amide]
Bevacizumab [1]; [4]
  Selectivity: 10.0
Bevacizumab [2]; [5]
  Bevacizumab IgG Bound (%): 100%
Bevacizumab [2]; [6]
  Bevacizumab IgG Yield (%): 100%
[3]; [7]
  h-poly-IgG Bound (%): 65%
[3]; mass eluted / mass injected
  h-poly-IgG Yield (%): 65%
Palivizumab; [7]
  Palivizumab Bound (%): 65%
Palivizumab; mass eluted / mass injected
  Palivizumab Yield (%): 65%
Tocilizumab; [7]
  Tocilizumab Bound (%): 71%
Tocilizumab; mass eluted / mass injected
  Tocilizumab Yield (%): 71%
Host cell proteins (HCP); [8]
  HCP Bound (%): 4%

## CCOc1ccc(NC(=O)c2cc(-c3ccco3)n(C)n2)cc1C(=O)NCCCN [Ligand L29, 5-[5-(2-Furyl)-1-methylpyrazol-3-yl]carboxamido-2-ethoxybenzoic acid N-(3-aminopropyl)amide]
Bevacizumab [1]
  Selectivity: 2.4
Bevacizumab [2]; [9]
  Bevacizumab IgG Bound (%): 100%
Bevacizumab [2]; [10]
  Bevacizumab IgG Yield (%): 84%
[3]
  h-poly-IgG Bound (%): 95%
  h-poly-IgG Yield (%): 70%
Palivizumab
  Palivizumab Bound (%): 100%
  Palivizumab Yield (%): 88%
Tocilizumab
  Tocilizumab Bound (%): 100%
  Tocilizumab Yield (%): 96%
Host cell proteins (HCP); host cell proteins
  HCP Bound (%): 43%

## COc1ccc(NC(=O)c2nn(C)c3ccccc23)cc1C(=O)NCCOCCOCC(=O)NCCOCCOCC(=O)NCCCN [Ligand L61, 8-{8-[2-Methoxy-5-(1-methylindazol-3-ylcarboxamido)phenylcarboxamido]-3,6-dioxaoctanoylamido}-3,6-dioxaoctanoic acid (3-amino-1-propyl)amide]
Bevacizumab [1]
  Selectivity: 5.1
Bevacizumab [2]; [9]
  Bevacizumab IgG Bound (%): 100%
Bevacizumab [2]; [10]
  Bevacizumab IgG Yield (%): 92%
[3]
  h-poly-IgG Bound (%): 81%
  h-poly-IgG Yield (%): 81%
Palivizumab
  Palivizumab Bound (%): 67%
  Palivizumab Yield (%): 66%
Tocilizumab
  Tocilizumab Bound (%): 84%
  Tocilizumab Yield (%): 84%
Host cell proteins (HCP); host cell proteins
  HCP Bound (%): 20%

## COc1ccc(NC(=O)c2cn3ccsc3n2)cc1C(=O)NCCOCCOCC(=O)NCCOCCOCC(=O)NCCCN [Ligand L66, 8-{8-[5-(Imidazo[2,1-b]thiazol-6-ylcarboxamido)-2-methoxyphenylcarboxamido]-3,6-dioxaoctanoylamido}-3,6-dioxaoctanoic acid (3-amino-1-propyl)amide]
Bevacizumab [1]; [4]
  Selectivity: 10.0
Bevacizumab [2]; [5]
  Bevacizumab IgG Bound (%): 100%
Bevacizumab [2]; [6]
  Bevacizumab IgG Yield (%): 100%
[3]; [7]
  h-poly-IgG Bound (%): 46%
[3]; mass eluted / mass injected
  h-poly-IgG Yield (%): 46%
Palivizumab; [7]
  Palivizumab Bound (%): 41%
Palivizumab; mass eluted / mass injected
  Palivizumab Yield (%): 27%
Tocilizumab; [7]
  Tocilizumab Bound (%): 54%
Tocilizumab; mass eluted / mass injected
  Tocilizumab Yield (%): 53%
Host cell proteins (HCP); [8]
  HCP Bound (%): 0%

## COc1ccc(-c2noc(C(=O)Nc3ccc(OC)c(C(=O)NCCCN)c3)n2)cc1 [Ligand L54, 2-Methoxy-5-[3-(4-methoxyphenyl)-1,2,4-oxadiazol-5-ylcarboxamido]benzoic acid (3-amino-1-propyl)amide]
Bevacizumab [1]
  Selectivity: 2.8
Bevacizumab [2]; [9]
  Bevacizumab IgG Bound (%): 100%
Bevacizumab [2]; [10]
  Bevacizumab IgG Yield (%): 100%
[3]
  h-poly-IgG Bound (%): 100%
  h-poly-IgG Yield (%): 98%
Palivizumab
  Palivizumab Bound (%): 100%
  Palivizumab Yield (%): 84%
Tocilizumab
  Tocilizumab Bound (%): 100%
  Tocilizumab Yield (%): 100%
Host cell proteins (HCP); host cell proteins
  HCP Bound (%): 36%

## COc1ccc(NC(=O)c2cn(C)c3ccccc23)cc1C(=O)NCCCN [Ligand L25, 2-Methoxy-5-(1-methylindol-3-yl)carboxamidobenzoic acid N-(3-aminopropyl)amide]
Bevacizumab [1]
  Selectivity: 2.2
Bevacizumab [2]; [9]
  Bevacizumab IgG Bound (%): 100%
Bevacizumab [2]; [10]
  Bevacizumab IgG Yield (%): 95%
[3]
  h-poly-IgG Bound (%): 93%
  h-poly-IgG Yield (%): 81%
Palivizumab
  Palivizumab Bound (%): 82%
  Palivizumab Yield (%): 78%
Tocilizumab
  Tocilizumab Bound (%): 100%
  Tocilizumab Yield (%): 93%
Host cell proteins (HCP); host cell proteins
  HCP Bound (%): 46%

## COc1ccc(NC(=O)c2cc(-c3ccccc3)n(C)n2)cc1C(=O)NCCCN [Ligand L15, 2-Methoxy-5-(1-methyl-5-phenylpyrazol-3-yl)carboxamidobenzoic acid N-(3-aminopropyl)amide]
Bevacizumab [1]
  Selectivity: 1.6
Bevacizumab [2]; [9]
  Bevacizumab IgG Bound (%): 99%
Bevacizumab [2]; [10]
  Bevacizumab IgG Yield (%): 94%
[3]
  h-poly-IgG Bound (%): 98%
  h-poly-IgG Yield (%): 83%
Palivizumab
  Palivizumab Bound (%): 100%
  Palivizumab Yield (%): 90%
Tocilizumab
  Tocilizumab Bound (%): 100%
  Tocilizumab Yield (%): 98%
Host cell proteins (HCP); host cell proteins
  HCP Bound (%): 64%

## COc1ccc(NC(=O)c2cn3ccsc3n2)cc1C(=O)NCCOCCOCC(=O)NCCCCCCN [Ligand L78, 8-[5-(Imidazo-[2,1-b]thiazol-6-ylcarboxamido)-2-methoxyphenylcarboxamido]-3,6-dioxaoctanoic acid (6-amino-1-hexyl)amide]
Bevacizumab [1]
  Selectivity: 7.4
Bevacizumab [2]; [5]
  Bevacizumab IgG Bound (%): 100%
Bevacizumab [2]; [6]
  Bevacizumab IgG Yield (%): 94%
[3]; [7]
  h-poly-IgG Bound (%): 76%
[3]; mass eluted / mass injected
  h-poly-IgG Yield (%): 76%
Palivizumab; [7]
  Palivizumab Bound (%): 61%
Palivizumab; mass eluted / mass injected
  Palivizumab Yield (%): 61%
Tocilizumab; [7]
  Tocilizumab Bound (%): 94%
Tocilizumab; mass eluted / mass injected
  Tocilizumab Yield (%): 94%
Host cell proteins (HCP); [8]
  HCP Bound (%): 14%

## COc1ccc(NC(=O)c2cn3ccsc3n2)cc1C(=O)NCCCNC(=O)CC[C@H](N)C(=O)NCCCNC(=O)c1cc(NC(=O)c2cn3ccsc3n2)ccc1OC [Ligand L64, (S)-1-Aminopropane-1,3-dicarboxylic acid bis{3-[5-(imidazo[2,1-b]thiazol-6-ylcarboxamido)-2-methoxyphenylcarboxamido]propyl}amide]
Bevacizumab [1]; [11]
  Selectivity: 2.8
Bevacizumab [2]; [9]
  Bevacizumab IgG Bound (%): 100%
Bevacizumab [2]; [10]
  Bevacizumab IgG Yield (%): 93%
[3]
  h-poly-IgG Bound (%): 100%
  h-poly-IgG Yield (%): 97%
Tocilizumab
  Tocilizumab Bound (%): 99%
  Tocilizumab Yield (%): 99%
Host cell proteins (HCP); host cell proteins
  HCP Bound (%): 36%

## COc1ccc(NC(=O)c2nn(CC(O)CO)c3ccccc23)cc1C(=O)NCCCN (racemic) [Ligand L40, (RS)-5-[1-(2,3-Dihydroxy-1-propyl)indazol-3-ylcarboxamido]-2-methoxybenzoic acid (3-amino-1-propyl)amide]
Bevacizumab [1]
  Selectivity: 4.5
Bevacizumab [2]; [9]
  Bevacizumab IgG Bound (%): 100%
Bevacizumab [2]; [10]
  Bevacizumab IgG Yield (%): 100%
[3]
  h-poly-IgG Bound (%): 98%
  h-poly-IgG Yield (%): 97%
Palivizumab
  Palivizumab Bound (%): 62%
  Palivizumab Yield (%): 62%
Tocilizumab
  Tocilizumab Bound (%): 90%
  Tocilizumab Yield (%): 90%
Host cell proteins (HCP); host cell proteins
  HCP Bound (%): 22%

## COc1ccc(NC(=O)c2cn3ccsc3n2)cc1C(=O)NCCCC[C@H](NC(=O)c1cc(NC(=O)c2cn3ccsc3n2)ccc1OC)C(=O)NCCCN [Ligand L49, (S)-2,6-Bis[5-(Imidazo[2,1-b]thiazol-6-ylcarboxamido)-2-methoxyphenylcarboxamido]hexanoic acid (3-amino-1-propyl)amide]
Bevacizumab [1]; [11]
  Selectivity: 6.1
Bevacizumab [2]; [9]
  Bevacizumab IgG Bound (%): 100%
Bevacizumab [2]; [10]
  Bevacizumab IgG Yield (%): 88%
[3]
  h-poly-IgG Bound (%): 88%
  h-poly-IgG Yield (%): 88%
Tocilizumab
  Tocilizumab Bound (%): 99%
  Tocilizumab Yield (%): 97%
Host cell proteins (HCP); host cell proteins
  HCP Bound (%): 17%

## COc1ccc(NC(=O)c2nn(C)c3ccccc23)cc1C(=O)NCCOCCOCC(=O)NCCCN [Ligand L60, 8-[2-Methoxy-5-(1-methylindazol-3-ylcarboxamido)phenylcarboxamido]-3,6-dioxaoctanoic acid (3-amino-1-propyl)amide]
Bevacizumab [1]
  Selectivity: 3.3
Bevacizumab [2]; [9]
  Bevacizumab IgG Bound (%): 100%
Bevacizumab [2]; [10]
  Bevacizumab IgG Yield (%): 82%
[3]
  h-poly-IgG Bound (%): 95%
  h-poly-IgG Yield (%): 94%
Tocilizumab
  Tocilizumab Bound (%): 93%
  Tocilizumab Yield (%): 93%
Host cell proteins (HCP); host cell proteins
  HCP Bound (%): 30%

## COc1ccc(NC(=O)c2cn3ccsc3n2)cc1C(=O)NCCOCCOCC(=O)NCCCC[C@H](NC(=O)COCCOCCNC(=O)c1cc(NC(=O)c2cn3ccsc3n2)ccc1OC)C(=O)NCCCN [Ligand L50, (S)-2,6-Bis{8-[5-(Imidazo[2,1-b]thiazol-6-ylcarboxamido)-2-methoxyphenylcarboxamido]-3,6-dioxaoctanoylamido}hexanoic acid (3-amino-1-propyl)amide]
Bevacizumab [1]; [11]
  Selectivity: 6.9
Bevacizumab [2]; [9]
  Bevacizumab IgG Bound (%): 100%
Bevacizumab [2]; [10]
  Bevacizumab IgG Yield (%): 92%
[3]
  h-poly-IgG Bound (%): 91%
  h-poly-IgG Yield (%): 91%
Tocilizumab
  Tocilizumab Bound (%): 100%
  Tocilizumab Yield (%): 100%
Host cell proteins (HCP); host cell proteins
  HCP Bound (%): 15%

Source: patent US20130131321A1, “LIGANDS FOR ANTIBODY AND Fc-FUSION PROTEIN PURIFICATION BY AFFINITY CHROMATOGRAPHY” (GRAFFINITY PHARMACEUTICALS GMBH, priority 2010, published 2013)
